# Experimental data taken from US8026243B2, “[4,5′]Bipyrimidinyl-6,4′-diamine derivatives as protein kinase inhibitors” (Novartis AG, priority 2006, dated 2011).
# Biological target: T1, Ba/F3-TEL-FGFR3 cells (Homo sapiens, UniProt P22607)
# T1 construct: fused on or other part: The N-terminal oligomerising part of TEL (ETV6) is fused before the intracellular kinase part of FGFR3; P41212 (Transcription factor ETV6)
# Assay: FGFR3 cellular assay: proliferation of transformed Ba/F3-TEL-FGFR3 cells (AlamarBlue)
# Type: cell-based
# Conditions: 48 hours incubation, class symbols
# Summary of the method: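 Ba/F3-TEL-FGFR3 cells (5000/well) in RPMI 1640 with 10% FBS, exposed to twelve-point 1:3 compound dilutions for 48 h. Proliferation read by AlamarBlue (10% final, 4 h at 37 °C), fluorescence Ex530/Em580; IC50 from linear regression of percent inhibition.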
# T1 sequence (P22607 whole entry, change not shown, the tested form may be a part): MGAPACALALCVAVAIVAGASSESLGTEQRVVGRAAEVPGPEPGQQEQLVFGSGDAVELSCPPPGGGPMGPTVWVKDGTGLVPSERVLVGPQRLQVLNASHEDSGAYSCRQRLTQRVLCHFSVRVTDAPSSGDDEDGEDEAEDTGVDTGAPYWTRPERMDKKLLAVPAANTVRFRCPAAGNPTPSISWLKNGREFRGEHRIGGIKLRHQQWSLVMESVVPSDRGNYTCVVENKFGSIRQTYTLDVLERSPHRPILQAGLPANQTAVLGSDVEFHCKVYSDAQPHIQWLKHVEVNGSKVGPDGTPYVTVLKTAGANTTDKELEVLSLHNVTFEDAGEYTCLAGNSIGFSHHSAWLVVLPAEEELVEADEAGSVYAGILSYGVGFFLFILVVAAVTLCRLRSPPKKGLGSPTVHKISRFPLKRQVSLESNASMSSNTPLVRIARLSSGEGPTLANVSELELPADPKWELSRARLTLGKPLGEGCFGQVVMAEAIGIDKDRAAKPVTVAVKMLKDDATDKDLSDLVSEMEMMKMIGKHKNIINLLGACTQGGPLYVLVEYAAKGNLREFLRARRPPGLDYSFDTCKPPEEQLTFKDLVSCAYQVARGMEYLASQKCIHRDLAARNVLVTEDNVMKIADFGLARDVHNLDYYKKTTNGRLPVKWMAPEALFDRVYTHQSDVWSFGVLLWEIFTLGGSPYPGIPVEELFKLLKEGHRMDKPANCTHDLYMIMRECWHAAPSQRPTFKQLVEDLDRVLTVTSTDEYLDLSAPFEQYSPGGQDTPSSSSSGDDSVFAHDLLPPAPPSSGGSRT
row,SMILES,GI50 [nM]
1,"COc1cc(OC)c(F)c(Nc2ncncc2-c2cc(Nc3ccc(C(C)O)cn3)ncn2)c1F (centres unmarked) [Compound 80, 1-{6-[4′-(2,6-Difluoro-3,5-dimethoxy-phenylamino)-[4,5′]bipyrimidinyl-6-ylamino]-pyridin-3-yl}-ethanol]",< 100
2,"COc1cc(OC)c(Cl)c(Nc2ncncc2-c2cc(Nc3ccc(C(C)O)cn3)ncn2)c1C (centres unmarked) [Compound 81, 1-{6-[4′-(2-Chloro-3,5-dimethoxy-6-methyl-phenylamino)-[4,5′]bipyrimidinyl-6-ylamino]-pyridin-3-yl}-ethanol]",< 100
3,"COc1cc(Nc2ncncc2-c2cc(Nc3ccc(C(C)O)cn3)ncn2)c(F)c(OC)c1 (centres unmarked) [Compound 83, 1-{6-[4′-(2-Fluoro-3,5-dimethoxy-phenylamino)-[4,5′]bipyrimidinyl-6-ylamino]-pyridin-3-yl}-ethanol]",< 100
4,"COc1cc(Nc2ncncc2-c2cc(Nc3ccc(CCN4CCOCC4)cn3)ncn2)c(F)c(OC)c1 [Compound 84, N4′-(2-Fluoro-3,5-dimethoxy-phenyl)-N6-[5-(2-morpholin-4-yl-ethyl)-pyridin-2-yl]-[4,5′]bipyrimidinyl-6,4′-diamine]",< 100
5,"COc1cc(OC)c(F)c(Nc2ncncc2-c2cc(Nc3ccc(CCN4CCOCC4)cn3)ncn2)c1F [Compound 85, N4′-(2,6-Difluoro-3,5-dimethoxy-phenyl)-N6-[5-(2-morpholin-4-yl-ethyl)-pyridin-2-yl]-[4,5′]bipyrimidinyl-6,4′-diamine]",< 100
6,COc1cc(Nc2ncncc2-c2cc(Nc3ccc(CN4CCN(C(=O)CO)CC4)cn3)ncn2)c(F)c(OC)c1 [Compound 90],< 100
7,"COc1cc(C(=O)Nc2cccc(C(F)(F)F)c2)c(Cl)c(Nc2ncncc2-c2cc(Nc3ccc(CN4CCOCC4)cn3)ncn2)c1Cl [Compound 92, 2,4-dichloro-5-methoxy-3-(6-(5-(morpholinomethyl)pyridin-2-ylamino)-4,5′-bipyrimidin-4′-ylamino)-N-(3-(trifluoromethyl)phenyl)benzamide]",< 100
8,"CCN1CCN(Cc2ccc(NC(=O)c3cc(OC)c(Cl)c(Nc4ncncc4-c4cc(Nc5ccc(CN6CCOCC6)cn5)ncn4)c3Cl)cc2C(F)(F)F)CC1 [Compound 93, 2,4-dichloro-N-(4-((4-ethylpiperazin-1-yl)methyl)-3-(trifluoromethyl)phenyl)-5-methoxy-3-(6-(5-(morpholinomethyl)pyridin-2-ylamino)-4,5′-bipyrimidin-4′-ylamino)benzamide]",< 100
9,"COc1ccc(F)c(Nc2nccnc2-c2cc(Nc3cc(CN4CCOCC4)ccn3)ncn2)c1F [Compound 105, {6-[3-(2,6-Difluoro-3-methoxy-phenylamino)-pyrazin-2-yl]-pyrimidin-4-yl}-(4-(morpholin-4-ylmethyl)-pyridin-2-yl)-amine]",< 100
10,"Nc1cc(-c2nccnc2Nc2c(Cl)cccc2Cl)ncn1 [Compound 106, 6-(3-(2,6-dichlorophenylamino)pyrazin-2-yl)pyrimidin-4-amine]",< 100

# Second part, the compound after the results:
row,GI50 [nM],SMILES
1,< 100,"COc1cc(OC)c(Cl)c(Nc2ncncc2-c2cc(Nc3ccc(C(C)O)cn3)ncn2)c1Cl (centres unmarked) [Compound 82, 1-{6-[4′-(2,6-Dichloro-3,5-dimethoxy-phenylamino)-[4,5′]bipyrimidinyl-6-ylamino]-pyridin-3-yl}-ethanol]"
2,250 to 500,"COc1cc(OC)c(Cl)c(Nc2ncncc2-c2cc(Nc3ccc(CCN4CCOCC4)cn3)ncn2)c1C [Compound 86, N4′-(2-Chloro-3,5-dimethoxy-6-methyl-phenyl)-N6-[5-(2-morpholin-4-yl-ethyl)-pyridin-2-yl]-[4,5′]bipyrimidinyl-6,4′-diamine]"
3,< 100,"COc1cc(OC)c(Cl)c(Nc2ncncc2-c2cc(Nc3ccc(CN4CCN(C(=O)CO)CC4)cn3)ncn2)c1Cl [Compound 87, 1-(4-{6-[4′-(2,6-Dichloro-3,5-dimethoxy-phenylamino)-[4,5′]bipyrimidinyl-6-ylamino]-pyridin-3-ylmethyl}-piperazin-1-yl)-2-hydroxy-ethanone]"
4,< 100,"COc1cc(OC)c(Cl)c(Nc2ncncc2-c2cc(Nc3ccc(CN4CCN(C(=O)CO)CC4)cn3)ncn2)c1F [Compound 88, 1-(4-{6-[4′-(2-Chloro-6-fluoro-3,5-dimethoxy-phenylamino)-[4,5′]bipyrimidinyl-6-ylamino]-pyridin-3-ylmethyl}-piperazin-1-yl)-2-hydroxy-ethanone]"
5,< 100,COc1cc(OC)c(F)c(Nc2ncncc2-c2cc(Nc3ccc(CN4CCN(C(=O)CO)CC4)cn3)ncn2)c1F [Compound 89]
6,< 100,"COc1cc(OC)c(Cl)c(Nc2nc(C)ncc2-c2cc(Nc3ccc(CN4CCOCC4)cn3)ncn2)c1F [Compound 91, N4′-(2-Chloro-6-fluoro-3,5-dimethoxy-phenyl)-2′-methyl-N6-(5-morpholin-4-ylmethyl-pyridin-2-yl)-[4,5′]bipyrimidinyl-6,4′-diamine]"
7,< 100,"COc1cc(OC)c(Cl)c(Nc2nccnc2-c2cc(Nc3ccc(CN4CCOCC4)cn3)ncn2)c1Cl [Compound 94, {6-[3-(2,6-Dichloro-3,5-dimethoxy-phenylamino)-pyrazin-2-yl]-pyrimidin-4-yl}-(5-morpholin-4-ylmethyl-pyridin-2-yl)-amine]"
8,< 100,"COc1cc(OC)c(Cl)c(Nc2nccnc2-c2cc(Nc3ccc(CN4CCOCC4)cn3)ncn2)c1F [Compound 95, {6-[3-(2-chloro-3,5-dimethoxy-6-fluoro phenylamino)-pyrazin-2-yl]-pyrimidin-4-yl}-(5-morpholin-4-ylmethyl-pyridin-2-yl)-amine]"
9,< 100,"COc1cc(OC)c(Cl)c(Nc2nccnc2-c2cc(Nc3cc(CN4CCOCC4)ccn3)ncn2)c1Cl [Compound 96, {6-[3-(2,6-Dichloro-3,5-dimethoxy-phenylamino)-pyrazin-2-yl]-pyrimidin-4-yl}-(4-morpholin-4-ylmethyl-pyridin-2-yl)-amine]"
10,< 100,"COc1cc(OC)c(Cl)c(Nc2nccnc2-c2cc(Nc3cc(CN4CCOCC4)ccn3)ncn2)c1F [Compound 97, {6-[3-(2-chloro-3,5-dimethoxy-6-fluoro phenylamino)-pyrazin-2-yl]-pyrimidin-4-yl}-(4-morpholin-4-ylmethyl-pyridin-2-yl)-amine]"
11,< 100,COc1cc(OC)c(Cl)c(Nc2nccnc2-c2cc(Nc3ccc(CN4CCN(CCO)CC4)cn3)ncn2)c1Cl [Compound 100]
12,< 100,COc1cc(OC)c(Cl)c(Nc2nccnc2-c2cc(Nc3ccc(CN4CCN(C(=O)CO)CC4)cn3)ncn2)c1Cl [Compound 101]
13,< 100,"COc1cc(OC)c(Cl)c(Nc2nccnc2-c2cc(Nc3ccc(C(C)O)cn3)ncn2)c1Cl (centres unmarked) [Compound 102, {6-[3-(2,6-Dichloro-3,5-dimethoxy-phenylamino)-pyrazin-2-yl]-pyrimidin-4-yl}-(5-[1-hydroxyethyl]-pyridin-2-yl)-amine]"
14,< 100,"COc1ccc(F)c(Nc2nccnc2-c2cc(Nc3ccc(CN4CCOCC4)cn3)ncn2)c1F [Compound 104, {6-[3-(2,6-Difluoro-3-methoxy-phenylamino)-pyrazin-2-yl]-pyrimidin-4-yl}-N-(5-(morpholin-4-ylmethyl)-pyridin-2-yl)-amine]"

# Same assay, conditions: 48 hours incubation, given as bound
row,GI50 [nM],SMILES
1,> 500,"COc1ccc(F)c(Nc2nccnc2-c2cc(N)ncn2)c1F [Compound 103, {6-[3-(2,6-Difluoro-3-methoxy-phenylamino)-pyrazin-2-yl]-pyrimidin-4-yl}-amine]"
2,> 500,"Clc1cccc(Cl)c1Nc1nccnc1-c1cc(Nc2ccc(CN3CCOCC3)cn2)ncn1 [Compound 107, 6-(3-(2,6-dichlorophenylamino)pyrazin-2-yl)-N-(5-(morpholinomethyl)pyridin-2-yl)pyrimidin-4-amine]"
